According to article PMC3224213, “Bacterial membrane activity of α-peptide/β-peptoid chimeras: Influence of amino acid composition and chain length on the activity against different bacterial strains” (BMC Microbiology, 2011):

Legend:
[1] = tested on: S. aureus; assay: Time-kill under the conditions of the ATP leakage assay; format: cell-based, Staphylococcus aureus; conditions: 1000 μg/mL chimera, same conditions as ATP assay, within the first 20 minutes, initial log ~9.5 per mL
Procedure: (§1) Pore formation as caused by peptide addition was determined by measuring ATP leakage from the bacterial cell using a bioluminescence assay. The assay was used to estimate differences between sub-typical chimeras 1, 2 and 3 on S. aureus and S. marcescens and to evaluate the effect of chain length of mixed type chimeras 4a, 4b and 4c on S. aureus. In brief, bacteria were grown in TSB at 37°C for 24 hours and then re-inoculated in TSB at 37°C for 6-8 hours until an absorbance at 546 nm of 2.5 for S. aureus and 2.0 for S. marcescens and then harvested (10 min at 2,000 × g). The bacteria were grown to a high absorbance since a high concentration of bacteria was necessary in order to get a measurable response in the ATP leakage assay. Cells were washed once in 50 mM potassium phosphate buffer (pH 7.0) and once in 50 mM HEPES buffer (pH 7.0), before the pellet was resuspended in HEPES buffer to an OD546 ~ 10, and then stored on ice. Before chimera addition bacteria were pre-incubated with 0.2% (w/v) glucose to energize the cells. In general a chimera dose of 1000 μg/mL (corresponding to 280-552 μM for all chimeras) was used for all assays; however, for determining dose response curves additional doses of 100 (28-55 μM), 250 (71-137 μM) and 500 (140-276 μM) μg/mL were tested, and only the immediate release was noted. Total ATP and extracellular ATP were determined with a luminometer […]. Intracellular volumes of S. aureus and S. marcescens (0.85 μm^3 and 1.7 μm^3, respectively) were subtracted from the total volume before calculating the extracellular ATP concentration; the intracellular ATP concentration could then be calculated from this and the total ATP. ATP leakage kinetics was determined on a bacterial suspension prepared as above. Samples were taken at time 0, 5, 10, 20, 30 and 60 minutes and viable counts determined. Both the ATP leakage assay and killing kinetics performed under the same assay conditions were performed in two independent experiments.

[2] = tested on: S. aureus; assay: ATP leakage bioluminescence assay; format: cell-based, Staphylococcus aureus; conditions: for dose for the immediate maximum ATP release: 500 μg/mL expressed in μM; for intracellular ATP concentration: HEPES buffer pH 7.0, two independent experiments; for minimum chimera dose for the maximum immediate ATP release: doses 100, 250, 500, 1000 μg/mL, immediate release only, data not shown
Procedure: as §1

[3] = tested on: twelve food-borne and clinical bacterial strains; format: cell-based
Procedure: Initial activity experiments were carried out with twelve strains from seven bacterial species representing common laboratory strains and clinical strains derived from both food-borne and nosocomial infections (Table 1). Stock cultures were stored at -80°C in 4% (w/v) glycerol, 0.5% (w/v) glucose, 2% (w/v) skimmed milk powder and 3% (w/v) tryptone soy powder. All experiments were carried out with bacteria incubated for one night (i.e. approximately 18 hours) at 37°C. Experiments were performed in cation-adjusted Mueller Hinton II broth (MHB) (Becton Dickinson 212322) adjusted to pH 7.4 or Tryptone Soy Broth (TSB) (Oxoid CM0129) for the ATP leakage assays. Brain Heart Infusion (BHI) (CM1135) with agar (VWR 20768.292) 1.5% as gelling agent was used throughout for colony plating.
The Minimum Inhibitory Concentration (MIC) of the chimeras was determined against the spectrum of bacteria using the microdilution method according to guidelines of the Clinical and Laboratory Standards Institute (CLSI). Chimera 1:2 serial dilutions were prepared from 1,024 μg/mL stock solutions to give a final range of 512-0.5 μg/mL in the wells. This corresponds to a final range of 144 to 0.14 μM for the heaviest chimera (i.e. chimera 4c) and of 282 to 0.27 μM for the lightest chimera (i.e. chimera 4a). Colonies grown overnight (i.e. approximately 18 hours) on BHI agar were suspended in 0.9% saline to give a turbidity of 0.13 at OD546 (approximately 1 × 10^8 CFU/mL), and then diluted in MHB pH 7.4 to a final concentration of 5 × 10^5 CFU/mL in each well. Following CLSI guidelines the media for testing of Listeria monocytogenes strains were supplemented with 2.5% lysed horse blood. Polypropylene plates (Nunc 442587) were used to minimize peptide binding and incubation time was 18-20 hours at 37°C. MIC was determined in a minimum of two technical replicates as the lowest concentration of the peptide analogue where no visible growth was found. The Minimum Bactericidal Concentration (MBC) was determined by plating 10 μL of the suspension from the first three wells without growth on BHI agar and incubating these for 24 hours at 37°C. MBC was the lowest concentration at which a 99.9% reduction in CFU/mL was observed. Activity is expressed in μmol/L to enable a direct comparison of analogues with different length (= size).

[4] = tested on: S. aureus 8325; assay: Killing kinetics (time-kill); format: cell-based, Staphylococcus aureus
Procedure: (§2) In vitro time-kill curves for chimera 1, 2 and 3 were determined against S. aureus 8325 (MIC μM: chimera 1 5.9; chimera 2 2.8; chimera 3 18.7) and Serratia marcescens ATCC 8100 (MIC μM: chimera 1 46.8; chimera 2 45.5; chimera 3 150.0). These two bacterial strains represent organisms susceptible and tolerant to the chimeras, respectively. The bactericidal effect of the three chimeras was tested at MIC in two independent experiments; additionally the effect of chimera 2 was tested at ¼ and 1/2 times MIC. In brief, a suspension prepared from fresh overnight colonies as described above was transferred to 2 mL PBS or cation-adjusted MHB with chimera added (from a 10 × MIC solution) to give a similar bacterial cell density as employed in the MIC determination; the resulting suspension was then incubated at 37°C, 300 rpm. Samples for colony determination were taken at 0, 1, 2, 4, 6 and 8 hours after addition and transferred to a ten-fold dilution row. Colony counts were determined after incubation for 24 hours at 37°C.

[5] = tested on: S. marcescens; assay: ATP leakage bioluminescence assay; format: cell-based, Serratia marcescens; conditions: 1000 μg/mL chimera
Procedure: as §1

[6] = tested on: Serratia marcescens ATCC 8100; assay: Killing kinetics (time-kill); format: cell-based; conditions: S. marcescens
Procedure: as §2

[7] = tested on: S. marcescens; assay: Killing by chimera with or without EDTA pre-treatment; format: cell-based, Serratia marcescens
Text: (§3) Although there was no systematic difference in the MIC values between Gram-positive and -negative bacteria, we speculated that the Gram-negative outer membrane could act as a barrier to the penetration of AMPs, since polymyxin B resistance in S. marcescens has been linked to induced changes in the amount and composition of lipopolysaccharide (LPS) in the outer membrane. Moreover, similar resistance-conferring membrane alterations have also been seen for other bacteria in response to polymyxin B treatment. Accordingly, we studied how a membrane-destabilizing pre-treatment of S. marcescens, E. coli and S. aureus with the divalent metal cation-chelating agent EDTA would affect the killing caused by chimera 1. In these experiments we used a non-lethal 0.5 mM concentration of EDTA together with the non-lethal 1.5 μM concentration of the tested AMP analogue. […] In contrast, cell numbers of both S. marcescens and E. coli were reduced with 4-5 log from an initial value of log ~5.5 within the first 4 hours (not shown) upon treatment with a sub-lethal EDTA concentration together with the chimera.

[8] = tested on: S. aureus; assay: as above; format: cell-based, Staphylococcus aureus
Text: as §3

[9] = tested on: E. coli; assay: as above; format: cell-based, Escherichia coli
Text: as §3

[10] = range over strains, summary of Table 2
[11] = 1.5 μM chimera alone, data not shown
[12] = 0.5 mM EDTA and 1.5 μM chimera, within the first 4 hours, initial log ~5.5, not shown

## CC(=O)N[C@@H](CCCCN)C(=O)N(CCC(=O)N[C@@H](CCCCNC(=N)N)C(=O)N(CCC(=O)N[C@@H](CCCCN)C(=O)N(CCC(=O)N[C@@H](CCCCNC(=N)N)C(=O)N(CCC(=O)N[C@@H](CCCCN)C(=O)N(CCC(=O)N[C@@H](CCCCNC(=N)N)C(=O)N(CCC(=O)N[C@@H](CCCCN)C(=O)N(CCC(=O)N[C@@H](CCCCNC(=N)N)C(=O)N(CCC(N)=O)[C@@H](C)c1ccccc1)[C@@H](C)c1ccccc1)[C@@H](C)c1ccccc1)[C@@H](C)c1ccccc1)[C@@H](C)c1ccccc1)[C@@H](C)c1ccccc1)[C@@H](C)c1ccccc1)[C@@H](C)c1ccccc1 [Chimera 4c]
[1]
  reduction in number of viable cells: 2 log
[2]
  dose for the immediate maximum ATP release: 140 µM
  minimum chimera dose for the maximum immediate ATP release: 500 µg/mL
[2]; 1000 μg/mL chimera
  immediate ATP release: approximately 15 μM
  intracellular ATP concentration: immediately depleted of intracellular ATP
[3]; [10]
  MIC values against the clinical strains of E. coli, S. aureus and K. pneumoniae: 2.2 to 9.0 µM
  MIC values against the food-borne pathogens L. monocytogenes and Vibro spp.: 1.1 to 2.2 µM

## CC(=O)N[C@@H](CCCCN)C(=O)N(CCC(=O)N[C@@H](CCCCNC(=N)N)C(=O)N(CCC(=O)N[C@@H](CCCCN)C(=O)N(CCC(=O)N[C@@H](CCCCNC(=N)N)C(=O)N(CCC(=O)N[C@@H](CCCCN)C(=O)N(CCC(=O)N[C@@H](CCCCNC(=N)N)C(=O)N(CCC(N)=O)[C@@H](C)c1ccccc1)[C@@H](C)c1ccccc1)[C@@H](C)c1ccccc1)[C@@H](C)c1ccccc1)[C@@H](C)c1ccccc1)[C@@H](C)c1ccccc1 [Chimera 4b]
[1]
  reduction in number of viable cells: no killing was observed
[2]; 1000 μg/mL chimera
  ATP leakage (in words): same leakage pattern as induced by chimera 4a

## CC(=O)N[C@@H](CCCCNC(=N)N)C(=O)N(CCC(=O)N[C@@H](CCCCNC(=N)N)C(=O)N(CCC(=O)N[C@@H](CCCCNC(=N)N)C(=O)N(CCC(=O)N[C@@H](CCCCNC(=N)N)C(=O)N(CCC(=O)N[C@@H](CCCCNC(=N)N)C(=O)N(CCC(=O)N[C@@H](CCCCNC(=N)N)C(=O)N(CCC(N)=O)[C@@H](C)c1ccccc1)[C@@H](C)c1ccccc1)[C@@H](C)c1ccccc1)[C@@H](C)c1ccccc1)[C@@H](C)c1ccccc1)[C@@H](C)c1ccccc1 [Chimera 2]
[4]; at MIC in MHB, 37°C, two independent experiments
  number of viable cells at MIC in MHB: did not decrease until after 6 hours
[4]; at MIC in PBS, after 4 hours
  decrease in viable cell numbers: 2 log
[5]
  ATP leakage (in words): caused leakage of ATP
[2]; 1000 μg/mL chimera
  ATP leakage (in words): caused leakage of ATP
[6]; at MIC in MHB, within the first hour, 37°C, two independent experiments
  decrease in the number of viable bacteria: 2 log
[6]; at MIC in PBS, 37°C
  viable cells after treatment in PBS: no viable cells remained after the first hour
[6]; ¼ MIC in MHB
  effect on cell number at ¼ MIC: reduction in cell number

## CC(=O)N[C@@H](CCCCNC(=N)N)C(=O)N(CCC(=O)N[C@@H](CCCCNC(=N)N)C(=O)N(CCC(=O)N[C@@H](CCCCNC(=N)N)C(=O)N(CCC(=O)N[C@@H](CCCCNC(=N)N)C(=O)N(CCC(=O)N[C@@H](CCCCNC(=N)N)C(=O)N(CCC(=O)N[C@@H](CCCCNC(=N)N)C(=O)N(CCC(N)=O)Cc1ccccc1)Cc1ccccc1)Cc1ccccc1)Cc1ccccc1)Cc1ccccc1)Cc1ccccc1 [Chimera 1]
[7]; [11]
  reduction in the number of viable cells, chimera alone: 1.5 log
[7]; [12]
  reduction of cell numbers, EDTA together with chimera: 4-5 log
[8]; [11]
  reduction in the number of viable cells, chimera alone: 0.5 log
[8]; 0.5 mM EDTA and 1.5 μM chimera
  viable cells, EDTA then chimera versus chimera only: No discernable difference
[5]
  ATP leakage (in words): caused leakage of ATP
[5]; HEPES buffer pH 7.0, two independent experiments
  intracellular ATP concentration: rapidly approached zero
[5]; during the first minutes, HEPES buffer pH 7.0, OD546 ~ 10, two independent experiments
  extracellular ATP concentration: ~ 5 μM
[9]; [11]
  reduction in the number of viable cells, chimera alone: 1.5 log
[9]; [12]
  reduction of cell numbers, EDTA together with chimera: 4-5 log
[2]; 1000 μg/mL chimera
  ATP leakage (in words): caused leakage of ATP
  intracellular ATP concentration: rapidly approached zero
[2]; 1000 μg/mL chimera, during the first minutes, HEPES buffer pH 7.0, OD546 ~ 10, two independent experiments
  extracellular ATP concentration: ~ 20 μM

## CC(=O)N[C@@H](CCCCN)C(=O)N(CCC(=O)N[C@@H](CCCCNC(=N)N)C(=O)N(CCC(=O)N[C@@H](CCCCN)C(=O)N(CCC(=O)N[C@@H](CCCCNC(=N)N)C(=O)N(CCC(N)=O)[C@@H](C)c1ccccc1)[C@@H](C)c1ccccc1)[C@@H](C)c1ccccc1)[C@@H](C)c1ccccc1 [Chimera 4a]
[1]
  reduction in number of viable cells: no killing was observed
[2]
  dose for the immediate maximum ATP release: 276 µM
  minimum chimera dose for the maximum immediate ATP release: 500 µg/mL
[2]; 1000 μg/mL chimera
  immediate ATP release: approximately 15 μM
  intracellular ATP concentration: approx. 5 μM
[3]; ratio of MIC to that of chimera 4c, over the strains of Table 2
  MIC values times higher than those of chimera 4c: 15-70 times
